Source: patent US20180273531A1, “PYRIMIDINE COMPOUND AND MEDICAL USE THEREOF” (Japan Tobacco Inc., priority 2004, published 2018)
pIC50: −log10 of the molar value.

Columns and labels:
Type in all cases: cell-based
[1] = system: colorectal cancer cell line HT-29 cells; assay: Growth inhibitory effect against cancer cell lines (3H-thymidine uptake), HT-29; details: Homo sapiens, HT-29, inhibition of 3H-thymidine uptake; test substance 18 hrs, then 3H-thymidine 6 hrs; triplicate
Method in brief: (§1)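 Cells seeded at 1.0×10^4/well, grown 24 hrs, then exposed to compound in DMSO for 18 hrs before 6 hrs pulse with ^3H-thymidine (0.25 μCi/well). Harvested cell-incorporated radioactivity counted; IC50 is the concentration halving uptake versus DMSO control, triplicate.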

p15 protein = assay: Evaluation of p15 induction activity (Western blotting); details: test substance 0.1 μM, 24 hrs, ACHN cells or HT-29 cells, compared to DMSO, n=2
Method in brief: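 p15 protein quantified by densitometry of anti-p15 Western blots (10 μg protein per lane, mean of n=2). Samples came from HT-29 or ACHN cells given 0.1 μM compound for 24 h after 24 h plating, with DMSO as control.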

[2] = system: Renal cancer cell line ACHN cell; assay: Growth inhibitory effect against cancer cell lines (3H-thymidine uptake), ACHN; details: Homo sapiens, ACHN
Method in brief: as §1

p27 protein = p27 protein induction test (Western blotting); details: test substance (0.1 1M), 24 hrs, ACHN cells or HT-29 cells, compared to DMSO, n=2
Method in brief: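 ACHN or HT-29 cells grown 24 h, then treated with test substance at […] (DMSO) for 24 h. Lysates normalised by protein content and probed by Western blot with anti-p27 antibody. Band density quantified by densitometer against DMSO control, n=2 averaged.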

| Structure (SMILES) | pIC50 [1] | fold induction at 0.1 µM (p15 protein) | pIC50 [2] | fold induction at 0.1 µM (p27 protein) |
| --- | --- | --- | --- | --- |
| C#Cc1ccc(Nc2c3c(=O)n(C4CC4)c(=O)n(-c4ccc(NC(C)=O)cc4)c3c(C)c(=O)n2C)c(F)c1 [Example 4-71] | 7.00 to 8.00 | ≥ 1.5 | 6.00 to 7.00 | ≥ 1.5 |
| CCNS(=O)(=O)c1cccc(-n2c(=O)n(C3CC3)c(=O)c3c(Nc4ccc(Br)cc4F)cc(=O)n(C)c32)c1 [Example 1-295] | 7.00 to 8.00 | ≥ 1.5 | 6.00 to 7.00 | ≥ 1.5 |
| Cn1c(=O)cc(Nc2ccc(Br)cc2F)c2c(=O)n(C3CC3)c(=O)n(-c3cccc(NS(=O)(=O)c4ccccc4)c3)c21 [Example 1-284] | 7.00 to 8.00 | ≥ 1.5 | 6.00 to 7.00 | ≥ 1.5 |
| Cc1c(=O)n(C)c(Nc2ccc(I)cc2F)c2c(=O)n(C3CC3)c(=O)n(-c3cccc(N4CCN(C)CC4=O)c3)c12 [Example 4-122] | > 8.00 | ≥ 1.5 | 7.00 to 8.00 | ≥ 1.5 |
| Cc1c(=O)n(C)c(Nc2ccc(I)cc2F)c2c(=O)n(C3CC3)c(=O)n(-c3cccc(N4C(=O)CNC4=O)c3)c12 [Example 4-108] | > 8.00 | ≥ 1.5 | 7.00 to 8.00 | ≥ 1.5 |
| CCCS(=O)(=O)Nc1cccc(-n2c(=O)n(C3CC3)c(=O)c3c(Nc4ccc(Br)cc4F)cc(=O)n(C)c32)c1 [Example 1-271] | > 8.00 | ≥ 1.5 | 7.00 to 8.00 | ≥ 1.5 |
| Cc1c(=O)n(C)c(Nc2ccc(I)cc2F)c2c(=O)n(C3CC3)c(=O)n(-c3ccc4nc[nH]c4c3)c12 [Example 4-107] | > 8.00 | ≥ 1.5 | 7.00 to 8.00 | ≥ 1.5 |
| C#Cc1ccc(Nc2cc(=O)n(C)c3c2c(=O)n(C2CC2)c(=O)n3-c2ccccc2)cc1 [Example 1-222] | 7.00 to 8.00 | ≥ 1.5 | 6.00 to 7.00 | ≥ 1.5 |
| CSc1ccc(Nc2cc(=O)n(C)c3c2c(=O)n(C2CC2)c(=O)n3-c2cccc(NC(C)=O)c2)c(F)c1 [Example 1-341] | > 8.00 | ≥ 1.5 | 7.00 to 8.00 | ≥ 1.5 |
| Cc1c(=O)n(C)c(Nc2ccc(I)cc2F)c2c(=O)n(C3CC3)c(=O)n(-c3cccc(N4CCOC4=O)c3)c12 [Example 4-125] | > 8.00 | ≥ 1.5 | > 8.00 | ≥ 1.5 |
| CONC(=O)Nc1cccc(-n2c(=O)n(C3CC3)c(=O)c3c(Nc4ccc(I)cc4F)n(C)c(=O)c(C)c32)c1 [Example 4-74] | > 8.00 | ≥ 1.5 | 7.00 to 8.00 | ≥ 1.5 |
| Cc1c(=O)n(C)c(Nc2ccc(I)cc2F)c2c(=O)n(C3CC3)c(=O)n(-c3ccc4nc(O)[nH]c4c3)c12 [Example 4-103] | > 8.00 | ≥ 1.5 | 6.00 to 7.00 | ≥ 1.5 |
| CC(C)S(=O)(=O)Nc1cccc(-n2c(=O)n(C3CC3)c(=O)c3c(Nc4ccc(I)cc4F)cc(=O)n(C)c32)c1 [Example 1-319] | > 8.00 | ≥ 1.5 | > 8.00 | ≥ 1.5 |
| Cc1cc(N(C)C)ccc1Nc1cc(=O)n(C)c2c1c(=O)n(C1CC1)c(=O)n2-c1ccccc1 [Example 1-112] | 7.00 to 8.00 | ≥ 1.5 | 6.00 to 7.00 | ≥ 1.5 |
| C#Cc1ccc(Nc2cc(=O)n(C)c3c2c(=O)n(C2CC2)c(=O)n3-c2cccc(NS(=O)(=O)CCC)c2)c(F)c1 [Example 1-320] | > 8.00 | ≥ 1.5 | 7.00 to 8.00 | ≥ 1.5 |
| CSc1ccc(Nc2c3c(=O)n(C4CC4)c(=O)n(-c4cccc(NS(C)(=O)=O)c4)c3c(C)c(=O)n2C)c(F)c1 [Example 4-106] | > 8.00 | ≥ 1.5 | 7.00 to 8.00 | ≥ 1.5 |
| Cc1c(=O)n(C)c(Nc2ccc(I)cc2F)c2c(=O)n(C3CC3)c(=O)n(-c3cccc(N4CCNC4=O)c3)c12 [Example 4-124] | > 8.00 | ≥ 1.5 | 7.00 to 8.00 | ≥ 1.5 |
| CSc1ccc(Nc2c3c(=O)n(C4CC4)c(=O)n(-c4cccc(NC(C)=O)c4)c3c(C)c(=O)n2C)c(F)c1 [Example 4-105] | > 8.00 | ≥ 1.5 | 7.00 to 8.00 | ≥ 1.5 |
